Measured values as given in patent publication US8993554B2, “Tetrahydroquinoline derivatives useful as bromodomain inhibitors” (GlaxoSmithKline LLC, priority 2011, dated 2015).
pIC50: −log10 of the molar value. Where a name gives a salt, the structure may show the parent alone.

tested on: LPS induced IL-6 secretion from whole blood; assay: Measurement of LPS Induced IL-6 Secretion from Whole Blood; format: cell-based; settings: IL-6 by immunoassay, LPS 200 ng/ml, 24 hours
Protocol: Activation of monocytic cells by agonists of toll-like receptors such as bacterial lipopolysaccharide (LPS) results in production of key inflammatory mediators including IL-6. Such pathways are widely considered to be central to the pathophysiology of a range of auto-immune and inflammatory disorders.
Compounds to be tested are diluted to give a range of appropriate concentrations of which 1 μl of the diluted stocks is added to a 96 well plate. Following addition of whole blood (130 μl) the plates are incubated at 37 degrees (5% CO2) for 30 min before the addition of 10 μl of 2.8 ug/ml LPS, diluted in complete RPMI 1640 (final concentration=200 ng/ml), to give a total volume of 140 μl per well. After further incubation for 24 hours at 37 degrees, 140 μl of PBS are added to each well. The plates are sealed, shaken for 10 minutes and then centrifuged (2500 rpm×10 min). 100 μl of the supernatant are removed and IL-6 levels assayed by immunoassay (typically by MesoScale Discovery technology) either immediately or following storage at −20 degrees. Concentration response curves for each compound was generated from the data and an IC50 value was calculated.

pIC50, 5.50 to 7.30:
CC(=O)N1c2ccc(-c3ccc(CC(=O)NCCN(C)C)cc3)cc2[C@H](Nc2ccc(C#N)cn2)C[C@@H]1C [Example 5, 2-(4-((2S,4R)-1-Acetyl-4-((5-cyanopyridin-2-yl)amino)-2-methyl-1,2,3,4-tetrahydroquinolin-6-yl)phenyl)-N-(2-(dimethylamino)ethyl)acetamide]
CC(=O)N1c2ccc(-c3ccc(C(=O)N4CCCC4)cc3)cc2[C@H](Nc2ccc(C)cn2)C[C@@H]1C [Example 68, 1-((2S,4R)-2-methyl-4-((5-methylpyridin-2-yl)amino)-6-(4-(pyrrolidine-1-carbonyl)phenyl)-3,4-dihydroquinolin-1(2H)-yl)ethanone formate]
CC(=O)N1c2ccc(-c3ccc(C(=O)NCCN(C)C)cc3)cc2[C@H](Nc2ccccn2)C[C@@H]1C [Example 20, 4-((2S,4R)-1-acetyl-2-methyl-4-(pyridin-2-ylamino)-1,2,3,4-tetrahydroquinolin-6-yl)-N-(2-(dimethylamino)ethyl)benzamide]
CC(=O)N1c2ccc(-c3ccc(C(=O)N4CCNCC4)nc3)cc2[C@H](Nc2ccc(C#N)cn2)C[C@@H]1C [Example 48, 6-(((2S,4R)-1-acetyl-2-methyl-6-(6-(piperazine-1-carbonyl)pyridin-3-yl)-1,2,3,4-tetrahydroquinolin-4-yl)amino)nicotinonitrile]
CC(=O)N1c2ccc(-c3ccc(C(=O)NCCN)cc3)cc2[C@H](NC(=O)OC(C)C)C[C@@H]1C [Example 6, Isopropyl ((2S,4R)-1-acetyl-6-(4-((2-aminoethyl)carbamoyl)phenyl)-2-methyl-1,2,3,4-tetrahydroquinolin-4-yl)carbamate hydrochloride]
CC(=O)N1c2ccc(-c3ccc(C(=O)NCCO)cc3)cc2[C@H](Nc2ccc(Cl)cc2)C[C@@H]1C [Example 40, 4-((2S,4R)-1-acetyl-4-((4-chlorophenyl)amino)-2-methyl-1,2,3,4-tetrahydroquinolin-6-yl)-N-(2-hydroxyethyl)benzamide]
CC(=O)N1c2ccc(-c3ccc(C(=O)NC(CO)CO)nc3)cc2[C@H](Nc2ccc(C#N)cn2)C[C@@H]1C [Example 30, 5-((2S,4R)-1-acetyl-4-((5-cyanopyridin-2-yl)amino)-2-methyl-1,2,3,4tetrahydroquinolin-6-yl)-N-(1,3-dihydroxypropan-2-yl)picolinamide]
CC(=O)N1c2ccc(-c3ccc(C(=O)NCCN(C)C)cn3)cc2[C@H](Nc2ccc(C#N)cn2)C[C@@H]1C [Example 10, 6-((2S,4R)-1-acetyl-4-((5-cyanopyridin-2-yl)amino)-2-methyl-1,2,3,4-tetrahydroquinolin-6-yl)-N-(2-(dimethylamino)ethyl)nicotinamide]
CC(=O)N1c2ccc(-c3ccc(C(=O)NCCN(C)C)cn3)cc2[C@H](Nc2ccccn2)C[C@@H]1C [Example 23, 6-((2S,4R)-1-acetyl-2-methyl-4-(pyridin-2-ylamino)-1,2,3,4-tetrahydroquinolin-6-yl)-N-(2-(dimethylamino)ethyl)nicotinamide]
CC(=O)N1c2ccc(-c3ccc(C(=O)N4CCOCC4)cn3)cc2[C@H](Nc2ccc(C)cn2)C[C@@H]1C [Example 59, 1-((2S,4R)-2-methyl-4-((5-methylpyridin-2-yl)amino)-6-(5-(morpholine-4-carbonyl)pyridin-2-yl)-3,4-dihydroquinolin-1(2H)-yl)ethanone]
CC(=O)N1c2ccc(-c3ccc(C(=O)N4CCOCC4)cn3)cc2[C@H](Nc2ccc(Cl)cn2)C[C@@H]1C [Example 57, 1-((2S,4R)-4-((5-chloropyridin-2-yl)amino)-2-methyl-6-(5-(morpholine-4-carbonyl)pyridin-2-yl)-3,4-dihydroquinolin-1(2H)-yl)ethanone]
CC(=O)N1c2ccc(-c3ccc(C(=O)NCCO)nc3)cc2[C@H](Nc2ccc(C#N)cn2)C[C@@H]1C [Example 29, 5-((2S,4R)-1-acetyl-4-((5-cyanopyridin-2-yl)amino)-2-methyl-1,2,3,4-tetrahydroquinolin-6-yl)-N-(2-hydroxyethyl)picolinamide]
CC(=O)N1c2ccc(-c3ccc(C(=O)N[C@H](C)CO)nc3)cc2[C@H](Nc2ccc(C#N)cn2)C[C@@H]1C [Example 32, 5-((2S,4R)-1-acetyl-4-((5-cyanopyridin-2-yl)amino)-2-methyl-1,2,3,4-tetrahydroquinolin-6-yl)-N—((R)-1-hydroxypropan-2-yl)picolinamide]
CC(=O)N1c2ccc(-c3ccc(C(=O)NCCN(C)C)cc3)cc2[C@H](Nc2ccccc2)C[C@@H]1C [Example 45, 4-((2S,4R)-1-acetyl-2-methyl-4-(phenylamino)-1,2,3,4-tetrahydroquinolin-6-yl)-N-(2-(dimethylamino)ethyl)benzamide]
CC(=O)N1c2ccc(-c3ccc(C(=O)NCCN(C)C)cc3)cc2[C@H](Nc2ccc(C#N)cn2)C[C@@H]1C [Example 16, 4-((2S,4R)-1-acetyl-4-((5-cyanopyridin-2-yl)amino)-2-methyl-1,2,3,4-tetrahydroquinolin-6-yl)-N-(2-(dimethylamino)ethyl)benzamide dihydrochloride]
CC(=O)N1c2ccc(-c3ccc(C(=O)NCCO)cn3)cc2[C@H](Nc2ccccn2)C[C@@H]1C [Example 24, 6-((2S,4R)-1-acetyl-2-methyl-4-(pyridin-2-ylamino)-1,2,3,4-tetrahydroquinolin-6-yl)-N-(2-hydroxyethyl)nicotinamide]
CC(=O)N1c2ccc(-c3ccc(C(=O)N4CCOCC4)cc3)cc2[C@H](Nc2ccc(C#N)cn2)C[C@@H]1C [Example 65, 6-(((2S,4R)-1-acetyl-2-methyl-6-(4-(morpholine-4-carbonyl)phenyl)-1,2,3,4-tetrahydroquinolin-4-yl)amino)nicotinonitrile]
CC(=O)N1c2ccc(-c3ccc(C(=O)NCCN)cc3)cc2[C@H](Nc2ccccn2)C[C@@H]1C [Example 22, 4-((2S,4R)-1-acetyl-2-methyl-4-(pyridin-2-ylamino)-1,2,3,4-tetrahydroquinolin-6-yl)-N-(2-aminoethyl)benzamide]
CC(=O)N1c2ccc(-c3ccc(C(=O)NCCN)cc3)cc2[C@H](Nc2ccc(Cl)cc2)C[C@@H]1C [Example 44, 4-((2S,4R)-1-acetyl-4-((4-chlorophenyl)amino)-2-methyl-1,2,3,4-tetrahydroquinolin-6-yl)-N-(2-aminoethyl)benzamide]
